In ChEMBL document CHEMBL1201862, “PubChem BioAssay data set” (2004):
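Values below derive from 48-hour exposures of cells grown in 96-well plates, with endpoints linearly interpolated between the two concentrations bracketing the appropriate inhibition level. GI50: concentration for 50% inhibition of growth.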 The source made the active and inactive calls. Cut-off read from the data, not from the text of the source: active = GI50 up to about 1.1 µM and inactive = higher.

How the values were obtained:
Experiment in all cases: NCI tumour cell line growth inhibition, 48 h
SF-295 = test system: SF-295
OVCAR-4 = test system: OVCAR-4
ACHN = test system: ACHN
UACC-257 = test system: UACC-257
MDA-N = test system: MDA-N
COLO 205 = test system: COLO 205
BT-549 = test system: BT-549
SK-OV-3 = test system: SK-OV-3
NCI/ADR-RES = test system: NCI/ADR-RES
EKVX = test system: EKVX
SK-MEL-2 = test system: SK-MEL-2
NCI-H460 = test system: NCI-H460
TK-10 = test system: TK-10
Hs-578T = test system: Hs-578T
CCRF-CEM = test system: CCRF-CEM
HCT-116 = test system: HCT-116
CAKI-1 = test system: CAKI-1
Malme-3M = test system: Malme-3M
SNB-75 = test system: SNB-75
A549 = test system: A549
MDA-MB-231 = test system: MDA-MB-231
HOP-62 = test system: HOP-62
M14 = test system: M14
SK-MEL-5 = test system: SK-MEL-5
NCI-H522 = test system: NCI-H522
OVCAR-3 = test system: OVCAR-3
LOX IMVI = test system: LOX IMVI
786-0 = test system: 786-0
K562 = test system: K562
UO-31 = test system: UO-31
SK-MEL-28 = test system: SK-MEL-28
U-251 = test system: U-251
OVCAR-5 = test system: OVCAR-5
A498 = test system: A498
DU-145 = test system: DU-145
HCT-15 = test system: HCT-15
HCC 2998 = test system: HCC 2998
MOLT-4 = test system: MOLT-4
OVCAR-8 = test system: OVCAR-8
KM12 = test system: KM12
SF-268 = test system: SF-268
RXF 393 = test system: RXF 393
SW-620 = test system: SW-620
HL-60 = test system: HL-60
PC-3 = test system: PC-3
RPMI-8226 = test system: RPMI-8226
SNB-19 = test system: SNB-19
HOP-92 = test system: HOP-92
SF-539 = test system: SF-539
UACC-62 = test system: UACC-62
MDA-MB-435 = test system: MDA-MB-435
NCI-H226 = test system: NCI-H226
HT-29 = test system: HT-29
IGROV-1 = test system: IGROV-1
MCF7 = test system: MCF7
SN12C = test system: SN12C
NCI-H23 = test system: NCI-H23
T47D = test system: T47D
SR = test system: SR

Measured: GI50

O[C@@H]1C[C@H]2N3CC[C@@]2(c2cc4c(cc2C3)OCO4)[C@H]2O[C@@H]12
> 100 µM: HCT-15
inactive: SF-295 > 100 µM | OVCAR-4 > 100 µM | ACHN > 100 µM | UACC-257 90.4 µM | MDA-N > 100 µM | BT-549 > 100 µM | SK-OV-3 > 100 µM | NCI/ADR-RES > 100 µM | EKVX > 100 µM | SK-MEL-2 > 100 µM | NCI-H460 > 100 µM | TK-10 > 100 µM | Hs-578T > 100 µM | CCRF-CEM > 100 µM | HCT-116 > 100 µM | CAKI-1 > 100 µM | Malme-3M > 100 µM | SNB-75 > 100 µM | A549 > 100 µM | MDA-MB-231 > 100 µM | HOP-62 > 100 µM | M14 > 100 µM | NCI-H522 > 100 µM | OVCAR-3 > 100 µM | LOX IMVI > 100 µM | 786-0 > 100 µM | K562 > 100 µM | UO-31 > 100 µM | SK-MEL-28 > 100 µM | U-251 > 100 µM | OVCAR-5 > 100 µM | A498 > 100 µM | DU-145 > 100 µM | HCC 2998 > 100 µM | MOLT-4 > 100 µM | OVCAR-8 > 100 µM | KM12 > 100 µM | SF-268 > 100 µM | RXF 393 > 100 µM | SW-620 > 100 µM | HL-60 > 100 µM | PC-3 > 100 µM | RPMI-8226 > 100 µM | SNB-19 > 100 µM | HOP-92 > 100 µM | UACC-62 > 100 µM | MDA-MB-435 > 100 µM | HT-29 > 100 µM | IGROV-1 > 100 µM | MCF7 > 100 µM | SN12C > 100 µM | NCI-H23 > 100 µM
active: COLO 205 < 0.01 µM | SK-MEL-5 < 0.01 µM | SF-539 0.0178 µM | NCI-H226 0.0271 µM

CC(C)(C)OC(=O)N(CCCN)CCCCN(CCCN)C(=O)OC(C)(C)C
inactive: SF-295 > 100 µM | OVCAR-4 > 100 µM | ACHN > 100 µM | UACC-257 > 100 µM | COLO 205 > 100 µM | BT-549 > 100 µM | SK-OV-3 > 100 µM | NCI/ADR-RES > 100 µM | EKVX > 100 µM | SK-MEL-2 > 100 µM | NCI-H460 > 100 µM | TK-10 > 100 µM | Hs-578T > 100 µM | CCRF-CEM > 100 µM | HCT-116 > 100 µM | CAKI-1 > 100 µM | SNB-75 > 100 µM | A549 > 100 µM | T47D > 100 µM | HOP-62 > 100 µM | M14 > 100 µM | SK-MEL-5 > 100 µM | NCI-H522 > 100 µM | OVCAR-3 > 100 µM | LOX IMVI > 100 µM | 786-0 > 100 µM | K562 > 100 µM | UO-31 > 100 µM | SK-MEL-28 > 100 µM | U-251 > 100 µM | OVCAR-5 > 100 µM | A498 > 100 µM | DU-145 > 100 µM | HCC 2998 > 100 µM | MOLT-4 > 100 µM | OVCAR-8 > 100 µM | KM12 > 100 µM | SF-268 > 100 µM | RXF 393 > 100 µM | SW-620 > 100 µM | HL-60 > 100 µM | PC-3 > 100 µM | SR > 100 µM | RPMI-8226 > 100 µM | SNB-19 > 100 µM | HOP-92 > 100 µM | SF-539 > 100 µM | UACC-62 > 100 µM | MDA-MB-435 > 100 µM | NCI-H226 > 100 µM | HT-29 > 100 µM | IGROV-1 > 100 µM | MCF7 > 100 µM | NCI-H23 > 100 µM
> 100 µM: HCT-15
